The values that follow come from patent US20240366589A1, “NHE3-BINDING COMPOUNDS AND METHODS FOR INHIBITING PHOSPHATE TRANSPORT” (Ardelyx, Inc., priority 2013, published 2024).

Experiment [1] concerns the target T1, Rat NHE3 (Rattus norvegicus, UniProt P26433).
T1 construct: expressed in transfected cells; host or cells: Opossum kidney (OK) cells (ATCC), electroporation
As to the kind of experiment: Cell-based NHE3 activity under persistent conditions (60 min incubation, washout), rat NHE3. The conditions noted are these: Table E5; 40 min after compound washout; dihydrochloride salt. How it is done: Cell-based activity of NHE3 Activity under ‘Persistent’ Conditions. The ability of compounds to inhibit Rat NHE3-mediated Na^+-dependent H^+ antiport after application and washout was measured using a modification of the pH sensitive dye method described above. Opossum kidney (OK) cells were obtained from the ATCC and propagated per their instructions. The rat NHE3 gene was introduced into OK cells via electroporation, and cells were seeded into 96 well plates and grown overnight. Medium was aspirated from the wells, cells were washed twice with NaCl-HEPES buffer (100 mM NaCl, 50 mM HEPES, 10 mM glucose, 5 mM KCl, 2 mM CaCl2, 1 mM MgCl2, pH 7.4), then overlayed with NaCl-HEPES buffer containing 0-30 μM test compound.
After a 60 min incubation, the test drug containing buffer was aspirated from the cells, cells were washed twice with NaCl-HEPES buffer without drug, then incubated for 30 min at room temperature with NH4Cl-HEPES buffer (20 mM NH4Cl, 80 mM NaCl, 50 mM HEPES, 5 mM KCl, 2 mM CaCl2, 1 mM MgCl2, pH 7.4) containing 5 μM BCECF-AM. Cells were washed twice with Ammonium free, Na^+-free HEPES (100 mM choline, 50 mM HEPES, 10 mM glucose, 5 mM KCl, 2 mM CaCl2, 1 mM MgCl2, pH 7.4) and incubated in the same buffer for 10 minutes at room temperature to lower intracellular pH. […]

The target in experiment [2] is T2, Human NHE3 (Homo sapiens, UniProt P48764).
T2 construct: expressed in transfected cells; host or cells: Opossum kidney (OK) cells (ATCC), electroporation
T2 sequence (P48764 26-834): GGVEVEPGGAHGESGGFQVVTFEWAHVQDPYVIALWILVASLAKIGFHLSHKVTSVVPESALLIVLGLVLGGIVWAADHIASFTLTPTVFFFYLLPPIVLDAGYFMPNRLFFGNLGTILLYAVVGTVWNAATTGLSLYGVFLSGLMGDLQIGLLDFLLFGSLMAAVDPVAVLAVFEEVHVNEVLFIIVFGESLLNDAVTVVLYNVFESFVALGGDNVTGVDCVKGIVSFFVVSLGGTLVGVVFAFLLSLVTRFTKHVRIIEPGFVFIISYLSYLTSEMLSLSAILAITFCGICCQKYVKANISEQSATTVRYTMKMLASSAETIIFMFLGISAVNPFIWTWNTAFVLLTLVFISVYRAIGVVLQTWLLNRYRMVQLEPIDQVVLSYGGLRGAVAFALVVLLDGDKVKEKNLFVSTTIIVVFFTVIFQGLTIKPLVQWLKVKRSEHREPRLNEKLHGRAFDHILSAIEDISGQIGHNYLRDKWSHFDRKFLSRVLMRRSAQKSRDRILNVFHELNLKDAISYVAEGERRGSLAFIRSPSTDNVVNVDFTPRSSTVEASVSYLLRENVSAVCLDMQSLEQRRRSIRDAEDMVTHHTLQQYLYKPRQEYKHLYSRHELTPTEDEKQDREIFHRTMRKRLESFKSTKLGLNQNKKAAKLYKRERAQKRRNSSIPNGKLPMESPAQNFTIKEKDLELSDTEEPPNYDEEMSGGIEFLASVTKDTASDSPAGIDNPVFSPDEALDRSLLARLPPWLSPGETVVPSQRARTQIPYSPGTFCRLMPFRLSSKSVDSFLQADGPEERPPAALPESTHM
As to the kind of experiment: Cell-based NHE3 activity under persistent conditions (60 min incubation, washout), human NHE3. The conditions noted are these: Table E5; dihydrochloride salt.

Experiment [3] deals with absorption of sodium from the intestinal lumen. Briefly: Inhibition of intestinal sodium absorption: urinary sodium (uNa) 16 h after single oral dose in rats. Type of experiment: in vivo, rat. To be noted: for UNa (%): urinary Na excretion as % of vehicle. The gist of the method: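 Eight-week-old Sprague-Dawley rats (n=6) given single oral gavage of compound or water vehicle in the late afternoon, then kept in metabolic cages with chow and water ad libitum. Urine collected over 16 h; sodium quantified by ion chromatography and expressed as % of vehicle mean, compared by one-way ANOVA with Dunnett's test.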

Each structure is given as a SMILES string.

T1 sequence (P26433 29-831): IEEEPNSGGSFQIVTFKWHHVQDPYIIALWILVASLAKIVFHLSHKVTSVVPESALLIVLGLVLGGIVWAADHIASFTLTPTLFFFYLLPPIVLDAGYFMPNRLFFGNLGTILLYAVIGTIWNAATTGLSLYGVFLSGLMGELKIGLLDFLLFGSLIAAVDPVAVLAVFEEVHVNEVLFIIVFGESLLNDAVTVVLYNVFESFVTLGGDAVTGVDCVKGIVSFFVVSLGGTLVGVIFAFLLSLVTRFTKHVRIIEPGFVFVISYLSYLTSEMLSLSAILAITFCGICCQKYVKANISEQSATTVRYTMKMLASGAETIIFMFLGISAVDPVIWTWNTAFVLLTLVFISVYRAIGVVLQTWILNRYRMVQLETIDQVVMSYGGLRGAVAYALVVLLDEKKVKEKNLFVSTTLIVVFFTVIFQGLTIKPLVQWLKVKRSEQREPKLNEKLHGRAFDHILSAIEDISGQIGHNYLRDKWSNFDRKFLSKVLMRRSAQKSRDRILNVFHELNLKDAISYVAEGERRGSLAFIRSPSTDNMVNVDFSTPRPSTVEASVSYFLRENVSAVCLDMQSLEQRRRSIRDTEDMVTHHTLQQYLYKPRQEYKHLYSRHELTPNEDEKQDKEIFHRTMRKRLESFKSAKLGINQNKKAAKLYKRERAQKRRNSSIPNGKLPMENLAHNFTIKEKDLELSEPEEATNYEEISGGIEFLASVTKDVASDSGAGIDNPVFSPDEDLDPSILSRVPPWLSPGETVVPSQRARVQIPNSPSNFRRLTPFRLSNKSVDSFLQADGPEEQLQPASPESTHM

`CN1Cc2c(Cl)cc(Cl)cc2[C@H](c2cccc(S(=O)(=O)NCCOCCOCCNC(=O)NCCCCNC(=O)NCCOCCOCCNS(=O)(=O)c3cccc([C@@H]4CN(C)Cc5c(Cl)cc(Cl)cc54)c3)c2)C1` [Cpd 002]: in experiment [1], the “Rat NHE3 pIC50 Persistent” value is listed as 8.4. The “Human NHE3 pIC50 Persistent” value in experiment [2] was found to be 8.2. Moreover, the “UNa (%)” value in experiment [3] (single oral dose 1 mg/kg) is 11 @ 1 mg/kg %.
Regarding `CN1Cc2c(Cl)cc(Cl)cc2[C@@H](c2cccc(S(=O)(=O)NCCOCCOCCNC(=O)NCCCCNC(=O)NCCOCCOCCNS(=O)(=O)c3cccc([C@H]4CN(C)Cc5c(Cl)cc(Cl)cc54)c3)c2)C1` [Cpd 004], in experiment [1], the “Rat NHE3 pIC50 Persistent” value is listed as 5.6. Besides, in experiment [2], the “Human NHE3 pIC50 Persistent” value is given as 5.6. In addition, the “effect on urinary Na (UNa)” value in experiment [3] (in words) was “no significant effect”. Moreover, the “UNa (%)” value in experiment [3] (single oral dose 10 mg/kg) is given as 68 @ 10 mg/kg %.
